Reference: patent US5679321A, “Sialic acid/fucose based medicaments” (Glycomed Incorporated, priority 1995, dated 1997)

Key:
[1] = biological target: T1, L-selectin IgG chimera (Homo sapiens, UniProt P14151); test: ELISA: blocking of L-selectin IgG chimera binding to 2,3sLex glycolipid
T1 sequence (P14151 39-332 limits assumed): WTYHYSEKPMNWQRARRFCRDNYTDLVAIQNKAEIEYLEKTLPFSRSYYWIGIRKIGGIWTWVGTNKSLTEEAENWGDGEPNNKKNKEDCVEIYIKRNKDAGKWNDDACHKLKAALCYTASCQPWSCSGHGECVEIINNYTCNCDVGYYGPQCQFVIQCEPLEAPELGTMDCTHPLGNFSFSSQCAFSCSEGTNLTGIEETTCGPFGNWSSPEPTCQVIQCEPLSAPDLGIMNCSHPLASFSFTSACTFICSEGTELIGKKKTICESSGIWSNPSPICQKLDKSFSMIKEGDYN
Excerpt: (§1) An ELISA assay was employed that uses recombinant fusion proteins composed of extracellular portions of the human selectins joined to human immunoglobulin heavy chain CH3, CH2, and hinge regions. See, for example, Walz et al., Science (1990) 250:1132; Aruffo et al., Cell (1991) 67:35; Aruffo et al., Proc. Natl. Acad. Sci. USA (1992) 89:2292. The assay is well known in the art, and generally consists of the following three steps:
(§2) I. 2,3sLex glycolipid (25 picomole/well) was transferred into microtiter wells as solutions and then evaporated off. Excess, which remained unattached, was washed off with water. The wells were then blocked with 5% BSA at room temperature for an hour and then washed with PBS containing 1 mM calcium.
II. […]
(§3) The positive control is the signal produced by the soluble receptor when it is allowed to react with 2,3sLex glycolipid in the microtiter wells in the absence of any inhibitor. […] The signal produced by the receptor that had been previously treated with an inhibitor (recorded as O.D.), was divided by the signal produced by the positive control and multiplied by 100 to calculate the % receptor bound to the well, or as expressed in the figures, the per cent of control binding. […]

[2] = test system: neutrophil migration to the peritoneal cavity; test: murine thioglycollate induced peritonitis model; assay type: in vivo, female Swiss Webster mice; conditions: FIG. 7; for inhibition of neutrophil migration into the peritoneum: compound in PBS by tail vein, thioglycollate intraperitoneally, cells counted after three hours
Excerpt: The efficaciousness of GM 1221, and GM 1398 was shown using a murine thioglycollate induced peritonitis model. The assay materials and methods are known in the art, or are generally described by Lewinsohn, D. et al., J. Immun., 138:4313-4321 (1987), or Watson, S. et.al., Nature 349:164-166 (1991).
This assay measures the abili:ty of the compounds to inhibit neutrophil migation to the peritoneal cavity, the migration being initiated by the presence of thioglycollate in the peritoneal cavity. Thioglycollate is a known and effective inflammatory agent that causes neutrophil migration into the mouse peritoneum when it is administered intraperitoneally. Lewinsohn, D. et al., J. Immun. (1987) 138:4313-4321.
Briefly, female Swiss Webster mice weighing about 25 grams were injected in the tail vein with 200 ul of phosphate buffered saline (PBS) with or without the appropriate compound. The pH of the solutions was adjusted to neutrality by the addition of either NaOH or HCL and sterilized by filtration through a 0.2 u filter.
Immediately following injection with the appropriate compound or PBS, the mice were injected intraperitoneally with 1 ml of thioglycollate medium prepared as described by the manufacturer, BBL. Three hours following injection of the thioglycollate solution the mice were sacrificed by CO2 asphyxiation, and the number of cells in the peritoneum removed by lavage with 5 ml of heparinized (5U/ml) 0.9%. sodium chloride solution containing 0.1% bovine serum albumin. Cell number was determined using a Coulter Counter. The cells were prepared for counting by diluting the lavage fluid with 1:50 of a commercial physiological isotonic solution, Isoton II, and the cells lysed by adding S/P Lysing and Hemoglobin Reagent (1:100 final dilution). Cell nuclei were counted in a sized window with lower and upper limits set at 3.9 and 5.7 um, respectively.

[3] = test system: E-selectin IgG chimera; test: ELISA: blocking of E-selectin IgG chimera binding to 2,3sLex glycolipid; set-up: species or system human; conditions: FIG. 4; several concentrations
Excerpt: as §1, §2
II. […]
as §3

Row | SMILES | inhibitory activity on L-selectin binding at all four concentrations tested ([1]; FIG. 6, all four concentrations of the compound tested) | inhibition of neutrophil migration into the peritoneum [2] | inhibition of E-selectin binding to 2,3sLex glycolipid (per cent of control binding) [3] | inhibition of L-selectin binding to 2,3sLex glycolipid (per cent of control binding) ([1]; FIG. 5 and FIG. 6, several concentrations) | more neutrophil migration inhibited than GM 1221 ([2]; relative to GM 1221)
1 | CC(OCCCCCCOC1O[C@@H](C)[C@@H](O)[C@@H](O)[C@@H]1O)C(=O)O (stereo partly drawn) [GM 1221] | significant inhibitory activity | inhibit neutrophil migration into the peritoneum | – | – | –
2 | CC(=O)NC1C(O)CC(OCCCCCCOC2OC(C)C(O)C(O)C2O)(C(=O)O)OC1C(O)C(O)CO [GM 1398, 1-O-α-Neu5Ac-(6-O-α-L-Fucopyranosyl)-Hexane] | – | inhibit neutrophil migration into the peritoneum | inhibit E-selectin binding | inhibit L-selectin binding in a concentration dependent manner | about 30%
